Experimental data: patent US8247211B2, “Glycopeptide antibiotics” (American Cyanamid Company, priority 2001, dated 2012)
In brackets after ≈: the same amount, converted by molar mass.

Columns and labels:
Experiment in all cases: In vitro antibacterial evaluation: minimum inhibitory concentration (MIC), broth dilution method
Type in all cases: cell-based
Enterococcus sp. = details: 18 hours at 35° C.
Procedure, shortened: (§1)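 Values are minimum inhibitory concentrations, meaning the smallest antibiotic concentration that stops growth of the organism. They come from broth dilution in Muller-Hinton II […] per NCCLS guidance (M7-A2), using 5×10^5 CFU/mL and concentrations from 64 to 0.06 μg/mL.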

Escherichia coli = details: 18 hours at 35° C.
Procedure, shortened: as §1

Staphylococcus sp. = system: Staphylococcus sp.
Procedure, shortened: as §1

Streptococcus sp. = details: 18 hours at 35° C.
Procedure, shortened: as §1

[1] = broth dilution, inoculum 5×10^5 CFU/mL

MIC Enterococcus avium (GC 4558) (Enterococcus sp.; Enterococcus avium (GC 4558)): 4 µg/mL (≈ 2.71 µM) | MIC Enterococcus faecalis (ATCC 29212) (Enterococcus sp.; Enterococcus faecalis (ATCC 29212)): 8 µg/mL (≈ 5.43 µM) | MIC Enterococcus faecalis (GC 2242) (Enterococcus sp.; Enterococcus faecalis (GC 2242)): 8 µg/mL (≈ 5.43 µM) | MIC Enterococcus faecalis (GC 2691) (Enterococcus sp.; Enterococcus faecalis (GC 2691)): 8 µg/mL (≈ 5.43 µM) | MIC Enterococcus faecalis (GC 3059) (Enterococcus sp.; Enterococcus faecalis (GC 3059)): 8 µg/mL (≈ 5.43 µM) | MIC Enterococcus faecalis (GC 4552) (Enterococcus sp.; Enterococcus faecalis (GC 4552)): 8 µg/mL (≈ 5.43 µM) | MIC Enterococcus faecalis (GC 4553) (Enterococcus sp.; Enterococcus faecalis (GC 4553)): 8 µg/mL (≈ 5.43 µM) | MIC Enterococcus faecalis (GC 4554) (Enterococcus sp.; Enterococcus faecalis (GC 4554)): 8 µg/mL (≈ 5.43 µM) | MIC Enterococcus faecalis (GC 6189) (Enterococcus sp.; Enterococcus faecalis (GC 6189)): 8 µg/mL (≈ 5.43 µM) | MIC Enterococcus faecium (GC 2243) (Enterococcus sp.; Enterococcus faecium (GC 2243)): 4 µg/mL (≈ 2.71 µM) | MIC Enterococcus faecium (GC 4556) (Enterococcus sp.; Enterococcus faecium (GC 4556)): 8 µg/mL (≈ 5.43 µM) | MIC Enterococcus faecium (GC 4557) (Enterococcus sp.; Enterococcus faecium (GC 4557)): 4 µg/mL (≈ 2.71 µM) | MIC Enterococcus avium (GC 4558) (Enterococcus sp.; [1]): 4 µg/mL (≈ 2.71 µM) | MIC Enterococcus faecalis (ATCC 29212) (Enterococcus sp.; [1]): 8 µg/mL (≈ 5.43 µM) | MIC Enterococcus faecalis (GC 2242) (Enterococcus sp.; [1]): 8 µg/mL (≈ 5.43 µM) | MIC Enterococcus faecalis (GC 2691) (Enterococcus sp.; [1]): 8 µg/mL (≈ 5.43 µM) | MIC Enterococcus faecalis (GC 3059) (Enterococcus sp.; [1]): 8 µg/mL (≈ 5.43 µM) | MIC Enterococcus faecalis (GC 4552) (Enterococcus sp.; [1]): 8 µg/mL (≈ 5.43 µM) | MIC Enterococcus faecalis (GC 4553) (Enterococcus sp.; [1]): 8 µg/mL (≈ 5.43 µM) | MIC Enterococcus faecalis (GC 4554) (Enterococcus sp.; [1]): 8 µg/mL (≈ 5.43 µM) | MIC Enterococcus faecalis (GC 6189) (Enterococcus sp.; [1]): 8 µg/mL (≈ 5.43 µM) | MIC Enterococcus faecium (GC 2243) (Enterococcus sp.; [1]): 4 µg/mL (≈ 2.71 µM) | MIC Enterococcus faecium (GC 4556) (Enterococcus sp.; [1]): 8 µg/mL (≈ 5.43 µM) | MIC Enterococcus faecium (GC 4557) (Enterococcus sp.; [1]): 4 µg/mL (≈ 2.71 µM) | MIC Escherichia coli (ATCC 25922) (Escherichia coli; Escherichia coli (ATCC 25922)): >64 µg/mL | MIC Escherichia coli (GC 4559) (Escherichia coli; Escherichia coli (GC 4559)): >64 µg/mL | MIC Escherichia coli (GC 4560) (Escherichia coli; Escherichia coli (GC 4560)): 16 µg/mL (≈ 10.9 µM) | MIC Staphylococcus aureus (ATCC 29213) (Staphylococcus sp.; strain ATCC 29213): 4 µg/mL (≈ 2.71 µM) | MIC Staphylococcus aureus (GC 1131) (Staphylococcus sp.; strain GC 1131): 4 µg/mL (≈ 2.71 µM) | MIC Staphylococcus aureus (GC 3051) (Staphylococcus sp.; strain GC 3051): 8 µg/mL (≈ 5.43 µM) | MIC Staphylococcus aureus (GC 3053) (Staphylococcus sp.; strain GC 3053): 4 µg/mL (≈ 2.71 µM) | MIC Staphylococcus aureus (GC 4541) (Staphylococcus sp.; strain GC 4541): 4 µg/mL (≈ 2.71 µM) | MIC Staphylococcus aureus (GC 4542) (Staphylococcus sp.; strain GC 4542): 8 µg/mL (≈ 5.43 µM) | MIC Staphylococcus aureus-SMITH (GC 4543) (Staphylococcus sp.; strain GC 4543): 4 µg/mL (≈ 2.71 µM) | MIC Staphylococcus aureus (GC 4544) (Staphylococcus sp.; strain GC 4544): 8 µg/mL (≈ 5.43 µM) | MIC Staphylococcus aureus (GC 4545) (Staphylococcus sp.; strain GC 4545): 4 µg/mL (≈ 2.71 µM) | MIC Coagulase Negative Staphylococcus (GC 4547) (Staphylococcus sp.; strain GC 4547): 4 µg/mL (≈ 2.71 µM) | MIC Coagulase Negative Staphylococcus (GC 4548) (Staphylococcus sp.; strain GC 4548): 4 µg/mL (≈ 2.71 µM) | MIC Coagulase Negative Staphylococcus (GC 4549) (Staphylococcus sp.; strain GC 4549): 2 µg/mL (≈ 1.36 µM) | MIC Coagulase Negative Staphylococcus (GC 4551) (Staphylococcus sp.; strain GC 4551): 4 µg/mL (≈ 2.71 µM) | MIC Coagulase Negative Staphylococcus (GC 6257) (Staphylococcus sp.; strain GC 6257): 4 µg/mL (≈ 2.71 µM) | MIC Streptococcus agalactiae (GC 4564) (Streptococcus sp.; Streptococcus agalactiae (GC 4564)): 2 µg/mL (≈ 1.36 µM) | MIC Streptococcus pneumoniae (ATCC 6301) (Streptococcus sp.; Streptococcus pneumoniae (ATCC 6301)): 0.5 µg/mL (≈ 0.339 µM) | MIC Streptococcus pneumoniae (GC 1894) (Streptococcus sp.; Streptococcus pneumoniae (GC 1894)): <0.06 µg/mL | MIC Streptococcus pneumoniae (GC 4565) (Streptococcus sp.; Streptococcus pneumoniae (GC 4565)): 0.25 µg/mL (≈ 0.17 µM) | MIC Streptococcus pyogenes (GC 4563) (Streptococcus sp.; Streptococcus pyogenes (GC 4563)): 1 µg/mL (≈ 0.679 µM) | MIC Streptococcus agalactiae (GC 4564) (Streptococcus sp.; [1]): 2 µg/mL (≈ 1.36 µM) | MIC Streptococcus pneumoniae (ATCC 6301) (Streptococcus sp.; [1]): 0.5 µg/mL (≈ 0.339 µM) | MIC Streptococcus pneumoniae (GC 1894) (Streptococcus sp.; [1]): <0.06 µg/mL | MIC Streptococcus pneumoniae (GC 4565) (Streptococcus sp.; [1]): 0.25 µg/mL (≈ 0.17 µM) | MIC Streptococcus pyogenes (GC 4563) (Streptococcus sp.; [1]): 1 µg/mL (≈ 0.679 µM)
Structure (SMILES): CC(c1ccccc1)C1NC(=O)CNC(=O)C(CO)NC(=O)C(C(O)C2CNC(=N)N2C2OC(CO)C(O)C(O)C2O)NC(=O)C(C(O)C2CNC(=N)N2)NC(=O)C(Cc2ccc(OC3OC(CO)C(OC4OC(CO)C(O)C5OC6(CCCCCCCCCCCC6)OC45)C(O)C3O)cc2)NC1=O (stereo not drawn) [Example 210a, Cyclo[glycyl-β-methylphenylalanyl-O-[4-O-(2,3-O-cyclotridecylidenehexopyranosyl)hexopyranosyl]tyrosyl-3-(2-iminoimidazolidin-4-yl)seryl-3-(3-hexopyranosyl-2-iminoimidazolidin-4-yl)serylseryl]]
MIC Staphylococcus haemolyticus (GC 4546) (Staphylococcus sp.; strain GC 4546): 8 µg/mL (≈ 5.43 µM)
